Where a SMILES comes first, the peptide text is derived from it.
Target: HLA B*1503 (Homo sapiens, UniProt P01889, A329T/A93T/A95T/C349S/D201E/D98Y/E187L/E204Q/K202T/N87E/Q94N/R155S/R180L/S121R/S35A/V306I/V36M/Y140S/Y91S)
Test: biochemical
Format: binding

Row | SMILES | IC50 [nM]
1 | CC[C@H](C)[C@H](NC(=O)[C@H](CCSC)NC(=O)[C@H](C)NC(=O)[C@H](C)NC(=O)[C@@H](N)Cc1ccccc1)C(=O)N[C@H](C(=O)N[C@@H](CCCNC(=N)N)C(=O)N[C@@H](CO)C(=O)N[C@@H](Cc1ccccc1)C(=O)O)[C@@H](C)CC [3102.1048] (H-FAAMIIRSF-OH) | 1.3
2 | CSCC[C@H](NC(=O)[C@H](CC(C)C)NC(=O)[C@H](CO)NC(=O)[C@H](CC(N)=O)NC(=O)[C@H](CC(N)=O)NC(=O)[C@H](CC(C)C)NC(=O)[C@@H](N)CS)C(=O)N[C@@H](CO)C(=O)N[C@@H](Cc1ccccc1)C(=O)O [3102.1050] (H-CLNNSLMSF-OH) | 0.77
3 | CC(C)C[C@H](NC(=O)[C@H](CO)NC(=O)[C@H](CO)NC(=O)[C@@H](NC(=O)[C@H](CCC(=O)O)NC(=O)[C@@H](NC(=O)[C@H](CO)NC(=O)[C@H](CCCCN)NC(=O)[C@@H](N)CC(C)C)C(C)C)[C@@H](C)O)C(=O)O [3102.1056] (H-LKSVETSSL-OH) | 3.8
4 | CC(C)C[C@H](NC(=O)[C@@H](N)CC(N)=O)C(=O)N[C@@H](Cc1ccc(O)cc1)C(=O)N[C@@H](Cc1ccccc1)C(=O)N[C@@H](CS)C(=O)N[C@H](C(=O)N[C@@H](CCCCN)C(=O)N[C@@H](CO)C(=O)N[C@@H](Cc1ccccc1)C(=O)O)[C@@H](C)O [3102.1057] (H-NLYFCTKSF-OH) | 4.3
5 | CC[C@H](C)[C@H](NC(=O)[C@@H](NC(=O)[C@@H](NC(=O)[C@H](CCCNC(=N)N)NC(=O)[C@H](CC(N)=O)NC(=O)[C@H](Cc1ccccc1)NC(=O)[C@H](CO)NC(=O)[C@@H](N)C(C)C)C(C)C)C(C)C)C(=O)N[C@@H](Cc1ccccc1)C(=O)O [3102.1059] (H-VSFNRVVIF-OH) | 1.1
6 | CC(C)C[C@H](NC(=O)[C@H](CC(N)=O)NC(=O)[C@H](CC(C)C)NC(=O)[C@H](CCCNC(=N)N)NC(=O)[C@H](CCCNC(=N)N)NC(=O)[C@H](CO)NC(=O)[C@H](CCCCN)NC(=O)[C@@H](N)CO)C(=O)N[C@@H](Cc1ccccc1)C(=O)O [3102.1061] (H-SKSRRLNLF-OH) | 2.4
7 | CC(C)[C@H](NC(=O)[C@H](CC(=O)O)NC(=O)[C@H](CCC(=O)O)NC(=O)[C@@H](NC(=O)[C@H](CO)NC(=O)[C@@H](N)CCCCN)C(C)C)C(=O)N[C@@H](CO)C(=O)N[C@@H](C)C(=O)N[C@@H](Cc1ccccc1)C(=O)O [3102.1062] (H-KSVEDVSAF-OH) | 14
8 | CC[C@H](C)[C@H](N)C(=O)N[C@@H](CCSC)C(=O)N[C@@H](CO)C(=O)N[C@@H](CC(C)C)C(=O)N[C@@H](Cc1ccccc1)C(=O)N[C@@H](CO)C(=O)N[C@H](C(=O)N[C@@H](CO)C(=O)N[C@@H](C)C(=O)O)[C@@H](C)O [3102.1063] (H-IMSLFSTSA-OH) | 7.7
9 | CC[C@H](C)[C@H](N)C(=O)N[C@@H](CO)C(=O)N[C@@H](CO)C(=O)N[C@@H](CCCNC(=N)N)C(=O)N[C@@H](CCC(=O)O)C(=O)N[C@@H](CO)C(=O)N[C@H](C(=O)N[C@@H](CO)C(=O)N[C@@H](Cc1ccccc1)C(=O)O)C(C)C [3102.1068] (H-ISSRESVSF-OH) | 12
10 | CC[C@H](C)[C@H](NC(=O)[C@@H]1CCCN1C(=O)[C@H](CO)NC(=O)CNC(=O)[C@H](CC(=O)O)NC(=O)[C@H](CC(C)C)NC(=O)[C@@H](NC(=O)[C@H](CCCCN)NC(=O)[C@@H](N)Cc1ccccc1)C(C)C)C(=O)O [3102.1070] (H-FKVLDGSPI-OH) | 0.82
11 | CC[C@H](C)[C@H](NC(=O)[C@H](CC(N)=O)NC(=O)[C@@H](NC(=O)[C@H](CCCCN)NC(=O)[C@@H](N)Cc1ccccc1)[C@@H](C)CC)C(=O)N[C@@H](Cc1ccccc1)C(=O)N[C@@H](CCSC)C(=O)N[C@@H](C)C(=O)N[C@@H](Cc1ccccc1)C(=O)O [3102.1074] (H-FKINIFMAF-OH) | 10
12 | CC[C@H](C)[C@H](NC(=O)[C@H](CC(N)=O)NC(=O)[C@H](Cc1c[nH]cn1)NC(=O)[C@H](CCC(N)=O)NC(=O)[C@@H](N)C(C)C)C(=O)N[C@@H](CCCCN)C(=O)N[C@@H](Cc1c[nH]cn1)C(=O)N[C@@H](CO)C(=O)N[C@@H](Cc1ccccc1)C(=O)O [3102.1075] (H-VQHNIKHSF-OH) | 0.2
13 | CSCC[C@H](NC(=O)[C@H](CO)NC(=O)[C@H](CCCNC(=N)N)NC(=O)[C@@H]1CCCN1C(=O)[C@H](Cc1ccccc1)NC(=O)[C@H](CCCCN)NC(=O)[C@H](CO)NC(=O)[C@H](CCCCN)NC(=O)[C@H](C)N)C(=O)O [3102.1076] (H-AKSKFPRSM-OH) | 0.26
14 | CC[C@H](C)[C@H](NC(=O)CNC(=O)[C@H](C)NC(=O)[C@H](Cc1ccc(O)cc1)NC(=O)[C@H](CCCCN)NC(=O)[C@@H](N)CO)C(=O)N[C@@H](CC(N)=O)C(=O)N[C@H](C(=O)N[C@@H](CC(C)C)C(=O)O)[C@@H](C)CC [3102.1077] (H-SKYAGINIL-OH) | 0.27
15 | C[C@@H](O)[C@H](N)C(=O)N[C@@H](CCCCN)C(=O)N[C@@H](Cc1ccccc1)C(=O)N[C@H](C(=O)N[C@@H](CC(=O)O)C(=O)N[C@@H](Cc1ccccc1)C(=O)N[C@@H](CCC(N)=O)C(=O)N[C@@H](CC(=O)O)C(=O)N[C@@H](Cc1ccccc1)C(=O)O)[C@@H](C)O [3102.1078] (H-TKFTDFQDF-OH) | 2.2
16 | CC[C@H](C)[C@H](NC(=O)[C@H](CC(N)=O)NC(=O)[C@H](CC(N)=O)NC(=O)[C@H](Cc1ccccc1)NC(=O)[C@@H]1CCCN1C(=O)[C@H](CCCCN)NC(=O)[C@H](CCCNC(=N)N)NC(=O)[C@H](CCC(N)=O)NC(=O)[C@@H](N)Cc1ccccc1)C(=O)O [3102.1079] (H-FQRKPFNNI-OH) | 8.9
17 | CC[C@H](C)[C@H](NC(=O)[C@H](CCCCN)NC(=O)[C@@H](N)CCCNC(=N)N)C(=O)N[C@@H](CO)C(=O)N[C@@H](CO)C(=O)N[C@@H](CCCCN)C(=O)N[C@@H](CC(N)=O)C(=O)N[C@@H](CO)C(=O)N[C@@H](CCSC)C(=O)O [3102.1080] (H-RKISSKNSM-OH) | 0.11
18 | CC[C@H](C)[C@H](NC(=O)[C@H](CO)NC(=O)[C@H](CCC(N)=O)NC(=O)[C@H](CCC(N)=O)NC(=O)[C@H](CC(C)C)NC(=O)[C@H](Cc1ccccc1)NC(=O)[C@H](CC(C)C)NC(=O)[C@@H](N)C(C)C)C(=O)N[C@@H](Cc1ccccc1)C(=O)O [3102.1081] (H-VLFLQQSIF-OH) | 0.61
19 | CC[C@H](C)[C@H](NC(=O)[C@H](CO)NC(=O)[C@H](CO)NC(=O)[C@H](CCC(=O)O)NC(=O)[C@H](CC(N)=O)NC(=O)[C@H](Cc1ccccc1)NC(=O)[C@@H](NC(=O)[C@H](CCC(N)=O)NC(=O)[C@@H](N)Cc1ccccc1)C(C)C)C(=O)O [3102.1082] (H-FQVFNESSI-OH) | 5
20 | CC(C)C[C@H](NC(=O)[C@H](CCCCN)NC(=O)[C@H](CC(N)=O)NC(=O)[C@@H](NC(=O)[C@H](Cc1ccccc1)NC(=O)[C@H](CS)NC(=O)[C@@H](NC(=O)[C@H](CCCCN)NC(=O)[C@@H](N)CCCCN)C(C)C)C(C)C)C(=O)O [3102.1086] (H-KKVCFVNKL-OH) | 4.5
21 | CC(C)C[C@H](NC(=O)[C@H](C)NC(=O)[C@H](CCC(N)=O)NC(=O)[C@H](CCC(N)=O)NC(=O)[C@@H](NC(=O)[C@@H](N)Cc1ccccc1)[C@@H](C)O)C(=O)N[C@@H](CO)C(=O)N[C@@H](CO)C(=O)N[C@@H](Cc1ccccc1)C(=O)O [3102.1087] (H-FTQQALSSF-OH) | 6.4
22 | CC[C@H](C)[C@H](NC(=O)[C@H](CC(C)C)NC(=O)[C@@H](NC(=O)[C@H](CO)NC(=O)[C@@H](NC(=O)[C@H](CCCCN)NC(=O)[C@H](C)N)[C@@H](C)O)[C@@H](C)O)C(=O)N[C@@H](Cc1ccccc1)C(=O)N[C@@H](Cc1ccccc1)C(=O)O [3102.1088] (H-AKTSTLIFF-OH) | 1.6

Reference: publication PMC2248166, “Quantitative peptide binding motifs for 19 human and mouse MHC class I molecules derived using positional scanning combinatorial peptide libraries” (Immunome Research, 2008)
